Assays:
[1] = system: scratching or licking induced by pruritic agent; experiment: Screening for anti-pruritic effect, topical application, hairless mouse challenged with pruritic agent; type: in vivo; conditions: 5% solution topical, 30 minutes observation
From the text: Either the mouse or the rat may be used as a screening model for anti-pruritic compounds. Before testing hair is plucked from the test site of skin in haired animals. Therefore hairless strains of mouse or the strain of rat known as fuzzy rat is preferred as a screening model for the present purpose.
A test composition containing 5% phenyl-alpha-acyloxyacetamide derivative in solution was topically applied to the left dorsal skin of a hairless mouse and a control vehicle solution was topically applied to the right dorsal skin of the same mouse. The same topical applications were repeated three times at 30 minute intervals. A challenging composition containing a pruritic agent, i.e. itch provoking substance, was then topically applied in a volume of 0.05 ml on both left and right dorsal skin of the same mouse. For the next 30 minutes the mouse was carefully observed for signs and symptoms of scratching or licking at the skin sites where the challenging pruritic composition had been topically applied.
If the mouse scratched or licked indiscriminately at both left and right sides, the test composition was determined to have no anti-pruritic property. […] To confirm the anti-pruritic effect of the test composition, the test solution was later topically applied to the right instead of the left dorsal skin of the same mouse. […]

summer eczema-prurigo = experiment: Oral anti-scratch (anti-pruritic) treatment of dogs; type: in vivo; conditions: for adverse effects on repeated dosing: dog, in vivo, po; for duration of anti-scratch or anti-pruritic effect / drowsiness or intoxication / time to stop scratching / anti-pruritic or anti-scratching effect on repeated dosing: dogs; for duration of anti-scratch or anti-pruritic effect / drowsiness or intoxication / time to stop scratching: oral single dose 5 to 10 mg/kg; for drowsiness or intoxication / time to stop scratching: all three dogs; for anti-pruritic or anti-scratching effect on repeated dosing: oral, repeated at intervals of two to several days
Protocol: Three dogs with summer eczema-prurigo were treated with oral administration of phenyl-alpha-acyloxyacetamide derivatives. Gelatin capsules containing N-ethyl phenyl-alpha-acetoxyacetamide or N-phenethyl phenyl-alpha-acetoxyacetamide at dosages ranging from 50 mg to 150 mg per capsule were prepared according to Examples. Single doses of 5 mg/kg to 10 mg/kg were administered orally to the dogs.
Oral doses containing N-ethyl phenyl-alpha-acetoxyacetamide or N-phenethyl phenyl-alpha-acetoxyacetamide were administered repeatedly to the dogs at intervals of two to several days.

Row | Structure (SMILES) | Anti-pruritic Effect [1] | adverse effects on repeated dosing (summer eczema-prurigo) | duration of anti-scratch or anti-pruritic effect (summer eczema-prurigo) | drowsiness or intoxication (summer eczema-prurigo) | time to stop scratching (summer eczema-prurigo) | anti-pruritic or anti-scratching effect on repeated dosing (summer eczema-prurigo)
1 | CCNC(=O)C(OC(C)=O)c1ccccc1 (stereo not drawn) [N-ethyl phenyl-alpha-acetoxyacetamide] | substantial anti-pruritic effect | No evidence of adverse effects was detected | approximately 8 hours | mentally alert as usual and did not have any signs or symptoms of drowsiness or intoxication | one | the same anti-pruritic or anti-scratching effect
2 | CC(=O)OC(C(=O)NCCc1ccccc1)c1ccccc1 (stereo not drawn) [N-phenethyl phenyl-alpha-acetoxyacetamide] | substantial anti-pruritic effect | No evidence of adverse effects was detected | approximately 8 hours | mentally alert as usual and did not have any signs or symptoms of drowsiness or intoxication | one | the same anti-pruritic or anti-scratching effect
